In BindingDB's records for doi:10.1021/jm020429w (Rensselaer Polytechnic Institute, 2003):

Experiment: Binding affinity towards Opioid receptor delta 1 from guinea pig brain using [3H]naltrindole as radioligand
In the case of `COc1ccc(CNc2ccc3c(c2)[C@@]2(C)CCN(CC4CC4)C(C3)[C@@H]2C)cc1` [(3-Cyclopropylmethyl-6,11-dimethyl-1,2,3,4,5,6-hexahydro-2,6-methano-benzo[d]azocin-8-yl)-(4-methoxy-benzyl)-amine], the Ki is reported as 80 nM. Compound `C[C@H]1C2Cc3ccc(Nc4ccccn4)cc3[C@@]1(C)CCN2CC1CC1` [(3-Cyclopropylmethyl-6,11-dimethyl-1,2,3,4,5,6-hexahydro-2,6-methano-benzo[d]azocin-8-yl)-pyridin-2-yl-amine] has a Ki of 11 nM. Work on `C[C@@H]1[C@@H]2Cc3ccc(N)cc3[C@]1(C)CCN2CC1CC1` [3-Cyclopropylmethyl-6,11-dimethyl-1,2,3,4,5,6-hexahydro-2,6-methano-benzo[d]azocin-8-ylamine] yielded a Ki of 920 nM. With `C[C@H]1[C@H]2Cc3ccc(N)cc3[C@@]1(C)CCN2C[C@@H]1CCCO1` [6,11-Dimethyl-3-(tetrahydro-furan-2-ylmethyl)-1,2,3,4,5,6-hexahydro-2,6-methano-benzo[d]azocin-8-ylamine] the Ki was 370 nM. Work on `C[C@H]1C2Cc3ccc(NCc4ccc(Cl)cc4)cc3[C@@]1(C)CCN2CC1CC1` [(4-Chloro-benzyl)-(3-cyclopropylmethyl-6,11-dimethyl-1,2,3,4,5,6-hexahydro-2,6-methano-benzo[d]azocin-8-yl)-amine] yielded a Ki of 100 nM. In the case of `CC[C@@]12CCN(CC3CC3)C(C(=O)c3ccc(N)cc31)[C@@H]2C` [8-Amino-3-cyclopropylmethyl-6-ethyl-11-methyl-3,4,5,6-tetrahydro-2H-2,6-methano-benzo[d]azocin-1-one], the Ki is reported as 81 nM. `COc1ccccc1Nc1ccc2c(c1)[C@@]1(C)CCN(CC3CC3)C(C2)[C@@H]1C` [(3-Cyclopropylmethyl-6,11-dimethyl-1,2,3,4,5,6-hexahydro-2,6-methano-benzo[d]azocin-8-yl)-(2-methoxy-phenyl)-amine] gave a Ki of 98 nM. With `C[C@H]1[C@H]2Cc3ccc(O)cc3[C@@]1(C)CCN2C[C@@H]1CCCO1` the Ki was 2.5 nM. Compound `C[C@H]1C2C(=O)c3ccc(O)cc3[C@@]1(C)CCN2CC1CC1` [3-Cyclopropylmethyl-8-hydroxy-6,11-dimethyl-3,4,5,6-tetrahydro-2H-2,6-methano-benzo[d]azocin-1-one] has a Ki of 20 nM. For `C[C@H]1C2C(=O)c3ccc(N)cc3[C@@]1(C)CCN2CC1CC1` [8-Amino-3-cyclopropylmethyl-6,11-dimethyl-3,4,5,6-tetrahydro-2H-2,6-methano-benzo[d]azocin-1-one], the Ki was 29 nM. In the case of `Cc1ccc(Nc2ccc3c(c2)[C@@]2(C)CCN(CC4CC4)C(C3)[C@@H]2C)cc1` [(3-Cyclopropylmethyl-6,11-dimethyl-1,2,3,4,5,6-hexahydro-2,6-methano-benzo[d]azocin-8-yl)-p-tolyl-amine], the Ki is reported as 6.2 nM. Work on `CC[C@@]12CCN(CC3CC3)C(C(=O)c3ccc(Nc4ccccc4)cc31)[C@@H]2C` [3-Cyclopropylmethyl-6-ethyl-11-methyl-8-phenylamino-3,4,5,6-tetrahydro-2H-2,6-methano-benzo[d]azocin-1-one] yielded a Ki of 37 nM. `C[C@H]1C2Cc3ccc(Nc4ccc(N(C)C)cc4)cc3[C@@]1(C)CCN2CC1CC1` [N-(3-Cyclopropylmethyl-6,11-dimethyl-1,2,3,4,5,6-hexahydro-2,6-methano-benzo[d]azocin-8-yl)-N',N'-dimethyl-benzene-1,4-diamine] gave a Ki of 75 nM. Work on `COc1ccc(Nc2ccc3c(c2)[C@@]2(C)CCN(CC4CC4)C(C3)[C@@H]2C)cc1` [(3-Cyclopropylmethyl-6,11-dimethyl-1,2,3,4,5,6-hexahydro-2,6-methano-benzo[d]azocin-8-yl)-(4-methoxy-phenyl)-amine] yielded a Ki of 8.3 nM. With `C[C@H]1[C@H]2Cc3ccc(Nc4ccccc4)cc3[C@@]1(C)CCN2C[C@@H]1CCCO1` [[6,11-Dimethyl-3-(tetrahydro-furan-2-ylmethyl)-1,2,3,4,5,6-hexahydro-2,6-methano-benzo[d]azocin-8-yl]-phenyl-amine] the Ki was 35 nM. With `C[C@H]1C2Cc3ccc(Nc4ccncc4)cc3[C@@]1(C)CCN2CC1CC1` [(3-Cyclopropylmethyl-6,11-dimethyl-1,2,3,4,5,6-hexahydro-2,6-methano-benzo[d]azocin-8-yl)-pyridin-4-yl-amine] the Ki was 240 nM. With `C[C@H]1C2Cc3ccc(Nc4ccc(Cl)c(Cl)c4)cc3[C@@]1(C)CCN2CC1CC1` [(3-Cyclopropylmethyl-6,11-dimethyl-1,2,3,4,5,6-hexahydro-2,6-methano-benzo[d]azocin-8-yl)-(3,4-dichloro-phenyl)-amine] the Ki was 29 nM. `C[C@H]1C2Cc3ccc(N=C(c4ccccc4)c4ccccc4)cc3[C@@]1(C)CCN2CC1CC1` [Benzhydrylidene-(3-cyclopropylmethyl-6,11-dimethyl-1,2,3,4,5,6-hexahydro-2,6-methano-benzo[d]azocin-8-yl)-amine] showed a Ki of 220 nM. Work on `C[C@H]1C2Cc3ccc(N(C)C)cc3[C@@]1(C)CCN2CC1CC1` [((6S,11R)-3-Cyclopropylmethyl-6,11-dimethyl-1,2,3,4,5,6-hexahydro-2,6-methano-benzo[d]azocin-8-yl)-dimethyl-amine] yielded a Ki of 810 nM. Work on `C[C@H]1C2Cc3ccc(Nc4ccc(C(F)(F)F)cc4)cc3[C@@]1(C)CCN2CC1CC1` [(3-Cyclopropylmethyl-6,11-dimethyl-1,2,3,4,5,6-hexahydro-2,6-methano-benzo[d]azocin-8-yl)-(4-trifluoromethyl-phenyl)-amine] yielded a Ki of 180 nM. `C[C@H]1C2Cc3cc4c(cc3[C@@]1(C)CCN2CC1CC1)[nH]c1ccccc14` [17-cyclopropylmethyl-1,20-dimethyl-(1S,20R)-5,17-diazapentacyclo[14.3.1.02,14.04,12.06,11]icosa-2(14),3,6(11),7,9,12-hexaene] gave a Ki of 170 nM. With `C[C@H]1C2Cc3ccc(Nc4cccnc4)cc3[C@@]1(C)CCN2CC1CC1` [(3-Cyclopropylmethyl-6,11-dimethyl-1,2,3,4,5,6-hexahydro-2,6-methano-benzo[d]azocin-8-yl)-pyridin-3-yl-amine] the Ki was 21 nM. For `COc1cccc(Nc2ccc3c(c2)[C@@]2(C)CCN(CC4CC4)C(C3)[C@@H]2C)c1` [(3-Cyclopropylmethyl-6,11-dimethyl-1,2,3,4,5,6-hexahydro-2,6-methano-benzo[d]azocin-8-yl)-(3-methoxy-phenyl)-amine], the Ki was 13 nM. `C[C@H]1C2Cc3ccc(Nc4ccc(C(C)(C)C)cc4)cc3[C@@]1(C)CCN2CC1CC1` [(4-tert-Butyl-phenyl)-(3-cyclopropylmethyl-6,11-dimethyl-1,2,3,4,5,6-hexahydro-2,6-methano-benzo[d]azocin-8-yl)-amine] gave a Ki of 61 nM. `C[C@H]1C2Cc3ccc(Nc4ccc(Cl)cc4)cc3[C@@]1(C)CCN2CC1CC1` [(4-Chloro-phenyl)-(3-cyclopropylmethyl-6,11-dimethyl-1,2,3,4,5,6-hexahydro-2,6-methano-benzo[d]azocin-8-yl)-amine] showed a Ki of 26 nM.
